Laboratory results taken from ChEMBL document CHEMBL3817808, “Enlarging the chemical space of anti-leishmanials: a structureactivity relationship study of peptoids against Leishmania mexicana, a causative agent of cutaneous leishmaniasis” (Medchemcomm, 2016).
Non-standard residues stand in square brackets, D forms with d. Residues, ends and D or L forms follow the SMILES beside them. Gly(N-2-aminoethyl) = NCCNCC(=O)O; Nspe = C[C@H](NCC(=O)O)c1ccccc1; Nphe = O=C(O)CNCc1ccccc1; Nleu = CC(C)CNCC(=O)O; NPrGly = CCCNCC(=O)O; Nlys = NCCCCNCC(=O)O

Experiments:
Leishmania mexicana [1] = test: Antileishmanial activity against axenic amastigote form of Leishmania mexicana MNYC/BZ/62/M379 assessed as parasite viability measured after 1 hr by alamarBlue staining based fluorescence analysis; assay type: functional; details: MNYC/BZ/62/M379, 1 h, read-out: ED50 (the source's name)
[2] = Cytotoxicity against mouse RAW264.7 cells measured after 24 hrs by alamarBlue staining based fluorescence analysis; assay type: cell-based; details: read-out: ED50
Leishmania mexicana [3] = test: Antileishmanial activity against Leishmania mexicana MNYC/BZ/62/M379 promastigotes assessed as parasite viability measured after 1 hr by alamarBlue staining based fluorescence analysis; assay type: functional; details: MNYC/BZ/62/M379, 1 h, read-out: ED50 (the source's name)
Leishmania mexicana [4] = test: Antileishmanial activity against Leishmania mexicana MNYC/BZ/62/M379 amastigotes infected in mouse RAW264.7 cells assessed as parasite viability measured after 24 hrs by alamarBlue staining based fluorescence analysis; assay type: functional

Row | SMILES | EC50 (Leishmania mexicana [1]) [µM] | CC50 at 24 h [2] [µM] | EC50 (Leishmania mexicana [3]) [µM] | ED50 (Leishmania mexicana [4]) [µM]
1 | NCCNCC(=O)N(CC(=O)N(CC(=O)N(CCN)CC(=O)N(CC(=O)N(CC(=O)N(CCN)CC(=O)N(CC(=O)N(CC(=O)N(CCN)CC(=O)N(CC(=O)N(CC(N)=O)Cc1ccccc1)Cc1ccccc1)Cc1ccccc1)Cc1ccccc1)Cc1ccccc1)Cc1ccccc1)Cc1ccccc1)Cc1ccccc1 (H-[Gly(N-2-aminoethyl)][Nphe][Nphe][Gly(N-2-aminoethyl)][Nphe][Nphe][Gly(N-2-aminoethyl)][Nphe][Nphe][Gly(N-2-aminoethyl)][Nphe][Nphe]-NH2) | > 100 | > 5 | 21 | >5
2 | CCCN(CC(=O)N(CC(N)=O)[C@@H](C)c1ccccc1)C(=O)CN(CCCCN)C(=O)CN(C(=O)CN(CCC)C(=O)CN(CCCCN)C(=O)CN(C(=O)CN(CCC)C(=O)CNCCCCN)[C@@H](C)c1ccccc1)[C@@H](C)c1ccccc1 (H-[Nlys][NPrGly][Nspe][Nlys][NPrGly][Nspe][Nlys][NPrGly][Nspe]-NH2) | > 100 |  | > 100 | 
3 | CCCN(CC(=O)N(CC(N)=O)[C@@H](C)c1ccccc1)C(=O)CN(CCCCN)C(=O)CN(C(=O)CN(CCC)C(=O)CN(CCCCN)C(=O)CN(C(=O)CN(CCC)C(=O)CN(CCCCN)C(=O)CN(C(=O)CN(CCC)C(=O)CNCCCCN)[C@@H](C)c1ccccc1)[C@@H](C)c1ccccc1)[C@@H](C)c1ccccc1 (H-[Nlys][NPrGly][Nspe][Nlys][NPrGly][Nspe][Nlys][NPrGly][Nspe][Nlys][NPrGly][Nspe]-NH2) | > 100 |  | > 100 | 
4 | CC(C)CN(CC(=O)N(CC(N)=O)[C@@H](C)c1ccccc1)C(=O)CN(CCCCN)C(=O)CN(C(=O)CN(CC(C)C)C(=O)CNCCCCN)[C@@H](C)c1ccccc1 (H-[Nlys][Nleu][Nspe][Nlys][Nleu][Nspe]-NH2) | > 100 |  | > 100 | 
5 | CC(C)CN(CC(=O)N(CC(N)=O)[C@@H](C)c1ccccc1)C(=O)CN(CCCCN)C(=O)CN(C(=O)CN(CC(C)C)C(=O)CN(CCCCN)C(=O)CN(C(=O)CN(CC(C)C)C(=O)CNCCCCN)[C@@H](C)c1ccccc1)[C@@H](C)c1ccccc1 (H-[Nlys][Nleu][Nspe][Nlys][Nleu][Nspe][Nlys][Nleu][Nspe]-NH2) | > 100 |  | > 100 | 
6 | CC(C)CN(CC(=O)N(CC(N)=O)[C@@H](C)c1ccccc1)C(=O)CN(CCCCN)C(=O)CN(C(=O)CN(CC(C)C)C(=O)CN(CCCCN)C(=O)CN(C(=O)CN(CC(C)C)C(=O)CN(CCCCN)C(=O)CN(C(=O)CN(CC(C)C)C(=O)CNCCCCN)[C@@H](C)c1ccccc1)[C@@H](C)c1ccccc1)[C@@H](C)c1ccccc1 (H-[Nlys][Nleu][Nspe][Nlys][Nleu][Nspe][Nlys][Nleu][Nspe][Nlys][Nleu][Nspe]-NH2) | > 100 |  | > 100 | 
7 | NCCCCNCC(=O)N(CC(=O)N(CC(=O)N(CCCCN)CC(=O)N(CC(=O)N(CC(N)=O)Cc1ccccc1)Cc1ccccc1)Cc1ccccc1)Cc1ccccc1 (H-[Nlys][Nphe][Nphe][Nlys][Nphe][Nphe]-NH2) | > 100 |  | > 100 | 
8 | NCCCCNCC(=O)N(CC(=O)N(CC(=O)N(CCCCN)CC(=O)N(CC(=O)N(CC(=O)N(CCCCN)CC(=O)N(CC(=O)N(CC(=O)N(CCCCN)CC(=O)N(CC(=O)N(CC(N)=O)Cc1ccccc1)Cc1ccccc1)Cc1ccccc1)Cc1ccccc1)Cc1ccccc1)Cc1ccccc1)Cc1ccccc1)Cc1ccccc1 (H-[Nlys][Nphe][Nphe][Nlys][Nphe][Nphe][Nlys][Nphe][Nphe][Nlys][Nphe][Nphe]-NH2) | > 100 |  | 15 | 
9 | C[C@@H](c1ccccc1)N(CC(N)=O)C(=O)CN(C(=O)CN(CCCCN)C(=O)CN(C(=O)CN(C(=O)CNCCCCN)[C@@H](C)c1ccccc1)[C@@H](C)c1ccccc1)[C@@H](C)c1ccccc1 (H-[Nlys][Nspe][Nspe][Nlys][Nspe][Nspe]-NH2) | > 100 |  | > 100 | 
10 | C[C@@H](c1ccccc1)N(CC(N)=O)C(=O)CN(C(=O)CN(CCCCN)C(=O)CN(C(=O)CN(C(=O)CN(CCCCN)C(=O)CN(C(=O)CN(C(=O)CN(CCCCN)C(=O)CN(C(=O)CN(C(=O)CNCCCCN)[C@@H](C)c1ccccc1)[C@@H](C)c1ccccc1)[C@@H](C)c1ccccc1)[C@@H](C)c1ccccc1)[C@@H](C)c1ccccc1)[C@@H](C)c1ccccc1)[C@@H](C)c1ccccc1 (H-[Nlys][Nspe][Nspe][Nlys][Nspe][Nspe][Nlys][Nspe][Nspe][Nlys][Nspe][Nspe]-NH2) | > 100 |  | 8 | 
11 | CC(c1ccccc1)N(CC(=O)N(CCCCN)CC(=O)N(CC(=O)N(CC(=O)N(CCCCN)CC(=O)N(CC(=O)N(CC(N)=O)[C@@H](C)c1ccccc1)Cc1ccc(F)cc1)C(C)c1ccccc1)Cc1ccc(F)cc1)C(=O)CN(Cc1ccc(F)cc1)C(=O)CNCCCCN (single isomer, unassigned) | > 100 |  | 13 | 
12 | CC(C)CCN(CC(=O)N(CC(=O)N(CCCCN)CC(=O)N(CCC(C)C)CC(=O)N(CC(=O)N(CCCCN)CC(=O)N(CCC(C)C)CC(=O)N(CC(=O)N(CCCCN)CC(=O)N(CCC(C)C)CC(=O)N(CC(N)=O)[C@@H](C)c1ccccc1)C(C)c1ccccc1)C(C)c1ccccc1)C(C)c1ccccc1)C(=O)CNCCCCN (single isomer, unassigned) | > 100 |  | 12 | 
13 | CC(c1ccccc1)N(CC(=O)N(CCCCN)CC(=O)N(CC(=O)N(CC(=O)N(CCCCN)CC(=O)N(CC(=O)N(CC(N)=O)[C@@H](C)c1ccccc1)[C@@H](C)c1ccccc1)Cc1ccc(F)cc1)Cc1ccc(F)cc1)C(=O)CN(C(=O)CN(CCCCN)C(=O)CN(Cc1ccc(F)cc1)C(=O)CN(Cc1ccc(F)cc1)C(=O)CNCCCCN)[C@@H](C)c1ccccc1 (single isomer, unassigned) | 21 | 5 | 6 | >5
14 | CC(C)CCN(CC(=O)N(CC(N)=O)C(C)c1ccccc1)C(=O)CN(CCCCN)C(=O)CN(C(=O)CN(CCC(C)C)C(=O)CN(CCCCN)C(=O)CN(C(=O)CN(CCC(C)C)C(=O)CNCCCCN)[C@@H](C)c1ccccc1)[C@@H](C)c1ccccc1 (single isomer, unassigned) | > 100 |  | 52 | 
15 | CCCCCN(CC(=O)N(CC(=O)N(CC(=O)N(CCCCN)CC(=O)N(CC(=O)N(CC(N)=O)[C@@H](C)c1ccccc1)[C@@H](C)c1ccccc1)C(C)c1ccccc1)[C@@H](C)c1ccccc1)C(=O)CN(C(=O)CN(C(=O)CN(CCCCN)C(=O)CN(C(=O)CN(C(=O)CNCCCCN)[C@@H](C)c1ccccc1)C(C)c1ccccc1)[C@@H](C)c1ccccc1)C(C)c1ccccc1 (single isomer, unassigned) | 15 |  | 10 | 
16 | CC(c1ccccc1)N(CC(=O)N(CCCCN)CC(=O)N(CC(=O)N(CC(=O)N(CCCCN)CC(=O)N(CC(=O)N(CC(=O)N(CCCCN)CC(=O)N(CC(=O)N(CC(N)=O)[C@@H](C)c1ccccc1)Cc1ccc(F)cc1)C(C)c1ccccc1)Cc1ccc(F)cc1)C(C)c1ccccc1)Cc1ccc(F)cc1)C(=O)CN(Cc1ccc(F)cc1)C(=O)CNCCCCN (single isomer, unassigned) | 27 |  | 8 | 
17 | CCCCCNCC(=O)N(CC(=O)N(CC(=O)N(CCCCN)CC(=O)N(CC(=O)N(CC(=O)N(CCCCC)CC(=O)N(CC(=O)N(CC(=O)N(CCCCN)CC(=O)N(CC(=O)N(CC(N)=O)[C@@H](C)c1ccccc1)[C@@H](C)c1ccccc1)C(C)c1ccccc1)[C@@H](C)c1ccccc1)C(C)c1ccccc1)[C@@H](C)c1ccccc1)C(C)c1ccccc1)[C@@H](C)c1ccccc1 (single isomer, unassigned) | 17 |  | 10 | 
18 | CC(c1ccccc1)N(CC(=O)N(CCN)CC(=O)N(CC(=O)N(CC(=O)N(CCN)CC(=O)N(CC(=O)N(CC(N)=O)[C@@H](C)c1ccccc1)[C@@H](C)c1ccccc1)C(C)c1ccccc1)[C@@H](C)c1ccccc1)C(=O)CN(C(=O)CNCCN)C(C)c1ccccc1 (single isomer, unassigned) | > 100 |  | 10 | 
19 | CC(c1ccccc1)N(CC(=O)N(CCCCN)CC(=O)N(CC(=O)N(CC(=O)N(CCCCN)CC(=O)N(CC(=O)N(CC(N)=O)[C@@H](C)c1ccccc1)[C@@H](C)c1ccccc1)Cc1ccc(F)cc1)Cc1ccc(F)cc1)C(=O)CN(C(=O)CNCCCCN)[C@@H](C)c1ccccc1 (single isomer, unassigned) | > 100 |  | 13 | 
20 | CCCCCNCC(=O)N(CC(=O)N(CC(=O)N(CCCCN)CC(=O)N(CC(=O)N(CC(=O)N(CCCCN)CC(=O)N(CC(=O)N(CC(=O)N(CCCCN)CC(=O)N(CC(=O)N(CC(N)=O)[C@@H](C)c1ccccc1)[C@@H](C)c1ccccc1)C(C)c1ccccc1)[C@@H](C)c1ccccc1)[C@@H](C)c1ccccc1)[C@@H](C)c1ccccc1)C(C)c1ccccc1)[C@@H](C)c1ccccc1 (single isomer, unassigned) | 21 |  | 8 | 
21 | CCCCCNCC(=O)N(CC(=O)N(CC(=O)N(CCCCC)CC(=O)N(CC(=O)N(CC(=O)N(CCCCN)CC(=O)N(CC(=O)N(CC(=O)N(CCCCN)CC(=O)N(CC(=O)N(CC(N)=O)[C@@H](C)c1ccccc1)[C@@H](C)c1ccccc1)C(C)c1ccccc1)[C@@H](C)c1ccccc1)C(C)c1ccccc1)[C@@H](C)c1ccccc1)C(C)c1ccccc1)[C@@H](C)c1ccccc1 (single isomer, unassigned) | 16 | 1.7 | 11 | 1.6
22 | C[C@H](c1ccccc1)N(CC(N)=O)C(=O)CN(C(=O)CN(CCCCN)C(=O)CN(C(=O)CN(C(=O)CN(CCCCN)C(=O)CN(C(=O)CN(C(=O)CNCCCCN)[C@H](C)c1ccccc1)[C@@H](C)c1ccccc1)[C@H](C)c1ccccc1)[C@@H](C)c1ccccc1)[C@H](C)c1ccccc1 (stereo in doubt) | > 100 |  | 15 | 
23 | C[C@H](c1ccccc1)N(CC(=O)N(CCN)CC(=O)N(CC(=O)N(CC(=O)N(CCN)CC(=O)N(CC(=O)N(CC(=O)N(CCN)CC(=O)N(CC(=O)N(CC(N)=O)[C@@H](C)c1ccccc1)[C@@H](C)c1ccccc1)[C@H](C)c1ccccc1)[C@@H](C)c1ccccc1)[C@H](C)c1ccccc1)[C@@H](C)c1ccccc1)C(=O)CN(C(=O)CNCCN)[C@H](C)c1ccccc1 (stereo in doubt) | 17 | 3 | 7 | >5
